Laboratory results: patent publication US5973204A (priority 1997, dated 1999)

Tests used:
glycine receptors = target: T1, glycine receptors (Rattus norvegicus, UniProt P07727); assay: binding tests, affinity to glycine receptors (% displacement)
T1 construct: from tissue; host or cells: rat spinal cord / brainstem synaptic membranes (inferred from the cited method)
From the text: The compounds of the invention have shown in binding tests a higher affinity to glycine receptors (Table I) than a structurally similar compound, i.e. thiocolchicoside.
The interaction of the compositions of the invention with their receptors has been evaluated according to the procedure by A. B. Young and S. H. Snyder reported in Proc. Natl. Acad. Sci U.S.A. 71, 4002, 1974.

[1] = tested on: polysynaptic reflexes induced by strychnine; assay: inhibition of the polysynaptic reflexes induced by strychnine in rabbits; assay type: in vivo, rabbit; details: for reduction of polysynaptic reflexes / removal of the potentiation of strychnine-induced reflexes: rabbits, 1 mg/kg intramuscularly
From the text: The inhibition of the polysynaptic reflexes induced by strychnine in rabbits has been studied for the in vivo tests.

[2] = acute toxicity (DL50) in the mouse; details: in vivo, iv
Protocol: The DL50 of the compounds I-III is, in fact, higher than 30 mg/kg i.v. in the mouse, the DL50 of thiocolchicoside being 7.5 mg/kg.

T1 sequence (P07727 29-457): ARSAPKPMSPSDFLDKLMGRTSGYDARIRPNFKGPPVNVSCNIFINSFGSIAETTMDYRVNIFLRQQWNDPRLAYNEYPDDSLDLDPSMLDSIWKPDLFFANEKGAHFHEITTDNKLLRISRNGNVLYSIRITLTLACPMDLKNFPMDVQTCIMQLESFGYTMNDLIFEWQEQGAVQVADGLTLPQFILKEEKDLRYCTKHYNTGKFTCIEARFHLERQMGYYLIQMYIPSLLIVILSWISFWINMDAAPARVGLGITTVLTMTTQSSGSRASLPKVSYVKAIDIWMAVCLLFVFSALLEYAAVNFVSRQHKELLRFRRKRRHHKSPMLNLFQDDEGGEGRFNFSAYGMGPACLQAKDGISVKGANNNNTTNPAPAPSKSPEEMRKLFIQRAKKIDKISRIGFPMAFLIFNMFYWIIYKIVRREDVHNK
T1 sequence (P20781 23-496 partner): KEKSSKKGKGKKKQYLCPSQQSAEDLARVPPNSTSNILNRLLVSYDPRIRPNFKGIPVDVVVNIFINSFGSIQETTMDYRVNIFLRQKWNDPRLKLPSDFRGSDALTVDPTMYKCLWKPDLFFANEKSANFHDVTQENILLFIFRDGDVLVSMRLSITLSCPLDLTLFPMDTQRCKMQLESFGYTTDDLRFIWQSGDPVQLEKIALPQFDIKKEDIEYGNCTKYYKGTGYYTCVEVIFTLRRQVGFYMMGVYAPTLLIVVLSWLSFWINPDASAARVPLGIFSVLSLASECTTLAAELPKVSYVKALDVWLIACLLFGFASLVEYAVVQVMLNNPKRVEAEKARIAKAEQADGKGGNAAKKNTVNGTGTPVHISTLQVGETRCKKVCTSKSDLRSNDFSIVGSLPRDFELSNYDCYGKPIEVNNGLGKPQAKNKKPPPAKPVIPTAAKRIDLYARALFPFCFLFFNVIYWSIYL

| SMILES | inhibition at 0.1 µM (glycine receptors) [%] | inhibition at 1 µM (glycine receptors) [%] | reduction of polysynaptic reflexes [1] [%] | removal of the potentiation of strychnine-induced reflexes [1] | inhibition at 0.5 µM (glycine receptors; 0.5 μM) [%] | LD50 [2] [mg/kg] | minimal effective dose at 1 mg/kg ([1]; Oryctolagus cuniculus, read-out: minimum dose to obtain comparable effects) [mg/kg] |
| --- | --- | --- | --- | --- | --- | --- | --- |
| COc1c(OCC2CO2)cc2c(c1OC)-c1ccc(SC)c(=O)cc1[C@@H](NC(C)=O)CC2 (some centres unmarked) [Compound I, 3-demethyl-3-glycidylthiocolchicine] | 40 | 85 | 50 | removing completely | – | – | – |
| COc1c(OCC(O)CO)cc2c(c1OC)-c1ccc(SC)c(=O)cc1[C@@H](NC(C)=O)CC2 (some centres unmarked) [Compound II, 3-demethyl-3-(2,3-dihydroxyrpropyl)thiocolchicine] | 35 | 65 | 60 | removing completely | – | – | – |
| COc1c(OCC(O)CN)cc2c(c1OC)-c1ccc(SC)c(=O)cc1[C@@H](NC(C)=O)CC2 (some centres unmarked) [Compound III, 3-demethyl-3-(3-amino-2-hydroxypropyl)thiocolchicine] | 50 | 75 | 65 | removing completely | – | – | – |
| COc1c(O[C@@H]2O[C@H](CO)[C@@H](O)[C@H](O)[C@H]2O)cc2c(c1OC)-c1ccc(SC)c(=O)cc1[C@@H](NC(C)=O)CC2 [thiocolchicoside, 3-demethyl-thiocolchicine glucoside, reference compound] | 20 | 70 | – | – | 45 | 7.5 | ≥ 5 |
